This is an account of results in patent US9226950B2, “Method and composition for treating diabetes mellitus” (National Dong Hwa University, priority 2013, dated 2016).

One test concerns AMPK. The experiment in a line: Phosphorylation of AMPK on Thr172 in L6 cells, Western blot. The settings on record: 100 μM tetracosanol 90 min, then 10 μM insulin 30 min, FIG. 2. It is filed as cell-based, mouse. As for the experimental part:
(§1) […] muscle myoblast cells (L6) was a generous gift from Professor Hitoshi Ashida's Lab. (Kobe University, Kobe, Japan). The cells were grown and maintained in α-minimal essential medium (α-MEM, 12000022, GIBCO, CA, USA) containing 10% fetal bovine serum (FBS, GIBCO) and 1% penicillin streptomycin (GIBCO) in a cell culture incubator with 5% CO2 at 37° C. Prior to the following experiments, the cells were seeded and cultured at a density of 8×10^3 cells per well in 96-well plates or 2.5×10^5 cells per well in 6-well plates. After the myoblasts achieved 80% confluence, the cells were incubated for 5 days in the α-MEM supplemented with 2% FBS to induce differentiation to myotubes.
The L6 cells were fully differentiated with α-MEM supplemented with 2% FBS for 5 days to myotubes. […] The levels of the proteins including phospho-AKT (Thr308), AKT, phospho-AMPK (Thr172), and AMPK (Cell Signaling) were detected and evaluated by Western blot with primary antibody.
The cells after treatments were collected and washed twice in cold KRH buffer, and then lysed in ice-cold RIPA buffer incubation at 4° C. for 60 min. After centrifugation at 12,000×g for 30 min at 4° C., the supernatant was kept and quantified by Bradford protein assay (Bio-Rad, Hercules, Calif., USA). […] Acquired data were analyzed and compared the difference among treatments. […]

The next test deals with GLUT4. Kind of test: GLUT4 translocation assay in differentiated C2C12 myotubes. The class given is cell-based, mouse. Conditions: FIG. 3. As for the experimental part:
Mouse muscle myoblast cells (C2C12) were obtained from the Food Industry Research and Development Institute (FIRDI, Hsinchu, Taiwan). The cells were grown and maintained in Dulbecco's Modified Eagle's Medium high glucose (DMEM-high glucose; GIBCO, CA, USA) containing 10% fetal bovine serum (FBS, GIBCO) and 1% penicillin streptomycin (GIBCO) in a cell culture incubator with 5% CO2 at 37° C. Prior to the following experiments, the cells were seeded and cultured at a density of 8×10^3 cells per well in 96-well plates or 2.5×10^5 cells per well in 6-well plates. […]
The C2C12 cells were fully differentiated with DMEM supplemented with 1% FBS and 1% horse serum for 4 days. […] The translocation changes of GLUT4 of the cells were detected. […] The HRP activity was determined by measuring the absorbance at 450 nm with a spectrophotometer (EnSpire 2300 Multilabel Reader, Perkin Elmer, Waltham, Mass., USA).
To detect the effect of tetracosanol on Glut4 translocation in S961-induced insulin resistance, the differentiated C2C12 cells were treated with or without 20 nM S961 (S961) followed by 185 μM of insulin (Ins), and treated with or without 100 μM of Tetracosanol (Tet) (n=4 in each group). […] At the cellular level, the ability of glucose uptake was determined by controlling the amount of the GLUT4 glucose transporter present in the plasma membrane. […]

For the next test, the system named is AKT. Kind of test: Phosphorylation of AKT on Thr308 in L6 cells, Western blot. It is filed as cell-based, rat. The settings on record: FIG. 1(b). The protocol:
as §1
The L6 cells were fully differentiated with α-MEM supplemented with 2% FBS for 5 days to myotubes. The cells were washed twice with PBS containing 0.1% BSA and subsequently incubated α-MEM containing 0.25% BSA with or without 100 nM of S961, and then treated with or without 100 μM of Tetracosanol for 90 min. Then, the cells were treated with or without 10 μM of insulin for 30 min. Finally, the cells were collected and washed twice in KRH buffer, then lysed in ice-cold RIPA buffer for 60 min. After centrifugation at 12,000×g for 30 min. at 4° C., the supernatant was kept at −80° C. until use. The levels of the proteins including phospho-AKT (Thr308), AKT, phospho-AMPK (Thr172), and AMPK (Cell Signaling) were detected and evaluated by Western blot with primary antibody.
The cells after treatments were collected and washed twice in cold KRH buffer, and then lysed in ice-cold RIPA buffer incubation at 4° C. for 60 min. After centrifugation at 12,000×g for 30 min at 4° C., the supernatant was kept and quantified by Bradford protein assay (Bio-Rad, Hercules, Calif., USA). The proteins were separated using sodium dodecyl sulfate polyacrylamide gel electrophoresis (SDS-PAGE) and subsequently transferred to PVDF (Perkin Elmer Life Sciences, Boston, Mass., USA) membrane. […] The signals were monitored using Western Lightning™ Plus-ECL (Perkin Elmer Life Sciences) and the PVDF membrane was exposed to Luminescent image analyzer (LAS)-3000 (Fujifilm, Minato, Tokyo, Japan). Acquired data were analyzed and compared the difference among treatments.
The differentiated L6 cells were incubated with 100 μM of tetracosanol (Tet) at 37° C. for 90 min, and then treated 10 μM of insulin (Ins) at 37° C. for 5 or 30 min. The cell lysates were separated by SDS-PAGE and blotted 5 min for phospho-Insr on Tyr1158, 1162, and 1163 (Insr, 100 kDa), and phospho-AKT on Thr308 protein level was measured at 30 min in Western blot analysis.
(In general: Immunoblotting shows a protein as a band on a membrane.)

In the case of `CCCCCCCCCCCCCCCCCCCCCCCCO` [tetracosanol], the “insulin-independent GLUT4 translocation response (phospho-AMPK on Thr172)” value in the test on AMPK is given as “no insulin-independent GLUT4 translocation response”. For the same molecule, the “insulin-dependent GLUT4 translocation” value in the test on GLUT4 (insulin resistance C2C12 differentiated myotubes induced by 20 nM S961, insulin plus tetracosanol (100 μM)) was “provided the recovery ability”; with GLUT4 (normal C2C12 differentiated myotubes (Ins), 100 μM tetracosanol, 185 μM insulin), “no effects”. The “phospho-AKT on Thr 308” value in the test with AKT (100 μM tetracosanol (Tet) alone, 90 min) was “did not”; with AKT (insulin plus both S961 and tetracosanol (Ins+S961+Tet)), “induced the phospho-AKT on Thr 308”; in the test with AKT (insulin plus tetracosanol (Ins+Tet): 100 μM tetracosanol 90 min, then 10 μM insulin 30 min) it was “induced the phospho-AKT on Thr 308”.
